IC50 data for nine molecules are collected here from patent publication US12371454B2, “Cyclic peptide compound having Kras inhibitory action” (priority 2019, dated 2025).

The test deals with T1, Kras and SOS1 (biotin-tagged human Kras loaded with GDP, His-tagged human SOS1) (Homo sapiens, UniProt P01116, G12D).
T1 construct: made in house; host or cells: E. coli (stated for Kras only)
Briefly: Protein-protein interaction inhibition between Kras and SOS1 (KrasGl2D-SOS PPI) using AlphaScreen. Type of test: binding. As to conditions: AlphaScreen; biotin-tagged human Kras loaded with GDP, His-tagged human SOS1; read-out: KRAS G12D-SOS PPI IC50. A digest of the protocol:
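AlphaScreen format: Ni donor beads capture His-SOS1, streptavidin acceptor beads capture biotinylated Kras (E. coli-expressed, GDP-loaded post-purification). Excite 680 nm, read 520-620 nm.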

Positions of bridges follow the written chain, without caps; N, C: chain ends. Non-standard residues stand in square brackets, D forms with d. Residues, ends and D or L forms follow the SMILES beside them. *: point of attachment. hPhe(3,5-F2-4-CF3) = N[C@@H](CCc1cc(F)c(C(F)(F)F)c(F)c1)C(=O)O; hPhe(3-Cl-4-CF3) = N[C@@H](CCc1ccc(C(F)(F)F)c(Cl)c1)C(=O)O; NMePhe(4-CF3) = CN[C@@H](Cc1ccc(C(F)(F)F)cc1)C(=O)O; Phe(2-F,5-Br) = N[C@@H](Cc1cc(Br)ccc1F)C(=O)O; 3Oxa8azabicyclo(3.2.1)octane = C1CC2COCC1N2*; NMeAbu(4,4,4-F3) = CN[C@@H](CC(F)(F)F)C(=O)O; NMeAla(cPent) = CN[C@@H](CC1CCCC1)C(=O)O; NMeGly(cPent) = CN[C@H](C(=O)O)C1CCCC1; Phe(3-I) = N[C@@H](Cc1cccc(I)c1)C(=O)O; Pro(4,4-F2) = O=C(O)[C@@H]1CC(F)(F)CN1; NMeY = CN[C@@H](Cc1ccc(O)cc1)C(=O)O; NMeCha = CN[C@@H](CC1CCCCC1)C(=O)O; NMeChg = CN[C@H](C(=O)O)C1CCCCC1; NMeI = CC[C@H](C)[C@H](NC)C(=O)O; NMeD = CN[C@@H](CC(=O)O)C(=O)O; NMeL = CN[C@@H](CC(C)C)C(=O)O; NMeAbu = CC[C@H](NC)C(=O)O; Morpholide = C1CN(*)CCO1; NMeA = CN[C@@H](C)C(=O)O; NMeAib = CNC(C)(C)C(=O)O; Nle = CCCC[C@H](N)C(=O)O; Piperidide = C1CCN(*)CC1; Pra = C#CC[C@H](N)C(=O)O; Pyrrolidide = C1CCN(*)C1; Ac5c = NC1(C(=O)O)CCCC1; Aze = O=C(O)[C@@H]1CCN1; X1 = FC1(F)CN(*)CC1(F)F; Ac4c = NC1(C(=O)O)CCC1; Sar = CNCC(=O)O

T1 sequence (P01116 1-188 isoform P01116-2 G12D): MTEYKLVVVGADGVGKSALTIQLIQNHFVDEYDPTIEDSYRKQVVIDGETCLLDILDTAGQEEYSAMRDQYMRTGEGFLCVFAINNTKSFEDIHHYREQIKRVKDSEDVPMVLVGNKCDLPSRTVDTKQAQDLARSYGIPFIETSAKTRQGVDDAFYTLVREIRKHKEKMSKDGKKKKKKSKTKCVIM

As usually defined, the IC50 is the concentration that inhibits the measured activity by half. For `CC[C@H](C)[C@@H]1NC(=O)[C@H](CC(C)C)N(C)C(=O)C[C@@H](C(=O)N2CCCC2)N(C)C(=O)[C@H](C2CCCCC2)N(C)C(=O)C2(CCC2)NC(=O)[C@@H]2CC(F)(F)CN2C(=O)[C@H](CCc2ccc(C(F)(F)F)c(Cl)c2)NC(=O)CN(C)C(=O)[C@H](CC2CCCCC2)N(C)C(=O)CN(C)C(=O)CN(C)C1=O` [Compound 1163] ([NMeL]I[Sar][Sar][NMeCha][Sar][hPhe(3-Cl-4-CF3)][Pro(4,4-F2)][Ac4c][NMeChg][NMeD]-Pyrrolidide; lactam N-11), the half-maximal inhibitory concentration (IC50) was 0.46 nM.

Consider `CC[C@H](C)[C@@H]1NC(=O)[C@H](CC(C)C)N(C)C(=O)C[C@@H](C(=O)N2CCCC2)N(C)C(=O)[C@H](C2CCCCC2)N(C)C(=O)C2(CCC2)NC(=O)[C@@H]2CCCN2C(=O)[C@H](CCc2cc(F)c(C(F)(F)F)c(F)c2)NC(=O)CN(C)C(=O)[C@H](CC2CCCCC2)N(C)C(=O)CN(C)C(=O)CN(C)C1=O` [Compound 1165] ([NMeL]I[Sar][Sar][NMeCha][Sar][hPhe(3,5-F2-4-CF3)]P[Ac4c][NMeChg][NMeD]-Pyrrolidide; lactam N-11), for which the IC50 was found to be 0.73 nM.

`CC[C@H](C)[C@@H]1NC(=O)[C@H](CC(C)C)N(C)C(=O)C[C@@H](C(=O)N2CCCC2)N(C)C(=O)[C@H](C2CCCC2)N(C)C(=O)C2(CCCC2)NC(=O)[C@@H]2CC(F)(F)CN2C(=O)[C@H](CCc2cc(F)c(C(F)(F)F)c(F)c2)NC(=O)CN(C)C(=O)[C@H](CC2CCCCC2)N(C)C(=O)CN(C)C(=O)CN(C)C1=O` [Compound 1166] ([NMeL]I[Sar][Sar][NMeCha][Sar][hPhe(3,5-F2-4-CF3)][Pro(4,4-F2)][Ac5c][NMeGly(cPent)][NMeD]-Pyrrolidide; lactam N-11): the half-maximal inhibitory concentration (IC50) is 0.47 nM.

With `CC[C@H](C)[C@@H]1NC(=O)[C@H](CC(C)C)N(C)C(=O)C[C@@H](C(=O)N2CC(F)(F)C(F)(F)C2)NC(=O)[C@H]([C@@H](C)CC)N(C)C(=O)C2(CCCC2)NC(=O)[C@@H]2CCCN2C(=O)[C@H](CCc2ccc(C(F)(F)F)c(Cl)c2)NC(=O)CN(C)C(=O)[C@H](CC2CCCCC2)N(C)C(=O)CN(C)C(=O)CN(C)C1=O` [Compound 1168] ([NMeL]I[Sar][Sar][NMeCha][Sar][hPhe(3-Cl-4-CF3)]P[Ac5c][NMeI]D-X1; lactam N-11), the IC50 was 100 nM.

`C#CC[C@@H]1NC(=O)[C@H](Cc2cccc(I)c2)NC(=O)CN(C)C(=O)[C@H](Cc2ccc(OC)cc2)N(C)C(=O)CN(C)C(=O)CN(C)C(=O)[C@H]([C@@H](C)CC)NC(=O)[C@H](CC(C)C)N(C)C(=O)C[C@@H](C(=O)N2CCCCC2)N(C)C(=O)[C@H](CC(C)C)NC(=O)C(C)(C)N(C)C1=O` [Compound 1169] ([NMeL]I[Sar][Sar][NMeY](Me)[Sar][Phe(3-I)][Pra][NMeAib]L[NMeD]-Piperidide; lactam N-11): the concentration for half-maximal inhibition (IC50) was found to be 53 nM.

Regarding `CCCC[C@@H]1NC(=O)[C@H](Cc2cc(Br)ccc2F)NC(=O)CN(C)C(=O)[C@H](Cc2ccc(OC)cc2)N(C)C(=O)[C@@H]2CCN2C(=O)[C@H](C)N(C)C(=O)[C@H]([C@@H](C)CC)NC(=O)[C@H](CC)N(C)C(=O)C[C@@H](C(=O)N2CCCCC2)N(C)C(=O)[C@H](CC(C)C)NC(=O)C(C)(C)N(C)C1=O` [Compound 1177] ([NMeAbu]I[NMeA][Aze][NMeY](Me)[Sar][Phe(2-F,5-Br)][Nle][NMeAib]L[NMeD]-Piperidide; lactam N-11), the IC50 came out at 12 nM.

Consider `CC[C@H](C)[C@@H]1NC(=O)[C@H](CC(C)C)N(C)C(=O)C[C@@H](C(=O)N2C3CCC2COC3)N(C)C(=O)[C@H](C2CCCCC2)N(C)C(=O)C2(CCCC2)NC(=O)[C@@H]2CC(F)(F)CN2C(=O)[C@H](CCc2ccc(C(F)(F)F)c(Cl)c2)NC(=O)CN(C)C(=O)[C@H](CC2CCCCC2)N(C)C(=O)CN(C)C(=O)CN(C)C1=O` [Compound 1179] ([NMeL]I[Sar][Sar][NMeCha][Sar][hPhe(3-Cl-4-CF3)][Pro(4,4-F2)][Ac5c][NMeChg][NMeD]-{3Oxa8azabicyclo(3.2.1)octane}; lactam N-11), for which the IC50 came to 0.52 nM.

For `CC[C@H](C)[C@@H]1NC(=O)[C@H](CC(F)(F)F)N(C)C(=O)C[C@@H](C(=O)N2CCOCC2)N(C)C(=O)[C@H](C2CCCCC2)N(C)C(=O)C2(CCCC2)NC(=O)[C@@H]2CC(F)(F)CN2C(=O)[C@H](CCc2ccc(C(F)(F)F)c(Cl)c2)NC(=O)CN(C)C(=O)[C@H](Cc2ccc(C(F)(F)F)cc2)N(C)C(=O)CN(C)C(=O)CN(C)C1=O` [Compound 1182] ([NMeAbu(4,4,4-F3)]I[Sar][Sar][NMePhe(4-CF3)][Sar][hPhe(3-Cl-4-CF3)][Pro(4,4-F2)][Ac5c][NMeChg][NMeD]-Morpholide; lactam N-11), the half-inhibitory concentration (IC50) turned out to be 0.56 nM.

Regarding `CC[C@H](C)[C@@H]1NC(=O)[C@H](CC2CCCC2)N(C)C(=O)C[C@@H](C(=O)N2CCCC2)N(C)C(=O)[C@H]([C@@H](C)CC)N(C)C(=O)C2(CCCC2)NC(=O)[C@@H]2CCCN2C(=O)[C@H](CCc2ccc(C(F)(F)F)c(Cl)c2)NC(=O)CN(C)C(=O)[C@H](Cc2ccc(C(F)(F)F)cc2)N(C)C(=O)[C@@H]2CCN2C(=O)[C@H](C)N(C)C1=O` [Compound 1183] ([NMeAla(cPent)]I[NMeA][Aze][NMePhe(4-CF3)][Sar][hPhe(3-Cl-4-CF3)]P[Ac5c][NMeI][NMeD]-Pyrrolidide; lactam N-11), the IC50 stood at 0.73 nM.
